These results are taken from patent US20240317744A1, “Bicyclic Ureas As Kinase Inhibitors” (Incyte Corporation, priority 2023, published 2024).

In assay [1] the target is T1, catalytic domain (JH1, amino acids 826-1132) of human JAK2 (Homo sapiens, UniProt O60674).
T1 construct: catalytic domain (JH1, amino acids 826-1132) of human JAK2; FLAG (N); biotin (biotinylated); purchased Carna Biosciences 08-445-20N; host or cells: baculovirus expression system
Briefly: JAK2 LanthaScreen JH1 Binding Assay. The note with it: JAK2 JH1 1.5 nM, 50 nM tracer, 2 hours at 25° C.; read-out: JH1 BIND. In outline: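 FLAG-tagged, biotinylated JAK2 JH1 (aa 826-1132, baculovirus-expressed; 1.5 nM) incubated 2 h at 25° C with compounds, 50 nM fluorescent tracer and 0.5 nM Streptavidin-Tb in Tris pH 7.5 buffer with MgCl2, Brij-35, BSA, EGTA, glycerol, DTT. Nonspecific binding defined with 2 mM ATP; TR-FRET IC50 from four-parameter fit.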

Assay [2] has as its target catalytic domain (JH1, amino acids 808-1132) of human JAK2 (Homo sapiens, UniProt O60674). The assay is described as follows: JAK2 HTRF Enzyme Activity Assay. The class given is biochemical. The following applies: ATP 30 µM, 60 minutes at 25° C.; read-out: V617F ENZ 30 UM. On the technique in general: TR-FRET usually uses a lanthanide donor and a delayed reading to cut background.

For assay [3], the target named is T2, pseudo-kinase domain (JH2, amino-acids 536-812) of human V617F mutant JAK2 (Homo sapiens, UniProt O60674, F794H/V617F/W659A/W777A).
T2 construct: pseudo-kinase domain (JH2, amino-acids 536-812 with 3 surface mutations W659A, W777A, F794H); His (C); purchased BPS Bioscience 79498; host or cells: baculovirus expression system
T2 sequence (O60674 536-812 V617F/W659A/W777A/F794H): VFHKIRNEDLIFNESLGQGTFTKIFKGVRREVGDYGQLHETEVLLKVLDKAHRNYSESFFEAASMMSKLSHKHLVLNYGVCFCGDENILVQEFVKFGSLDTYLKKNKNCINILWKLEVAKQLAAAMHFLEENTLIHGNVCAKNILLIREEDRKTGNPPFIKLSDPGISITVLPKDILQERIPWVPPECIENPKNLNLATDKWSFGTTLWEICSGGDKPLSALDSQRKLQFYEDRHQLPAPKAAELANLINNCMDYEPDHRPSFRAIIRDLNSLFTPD
The assay is described as follows: JAK2 LanthaScreen JH2-V617F Binding Assay. The following applies: JAK2 JH2-V617F 0.26 nM, 50 nM tracer, 1 hour at 25° C.; read-out: JH2 BIND V617F. In a few lines: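 Biotinylated His-Avi-tagged construct, baculovirus-expressed, at 0.26 nM; compounds competed against 50 nM fluorescent JH2 tracer with 0.25 nM streptavidin-Tb in Tris pH 7.5 buffer. Non-specific binding defined with 2 mM ATP. Read after 1 h at 25° C by TR-FRET; IC50 from four-parameter fit.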

In assay [4] the target is T3, pseudo-kinase domain (JH2, amino-acids 536-812) of human Wild Type JAK2 (Homo sapiens, UniProt O60674, F794H/W659A/W777A).
T3 construct: pseudo-kinase domain (JH2, amino-acids 536-812 with 3 surface mutations W659A, W777A, F794H); His (C); purchased BPS Bioscience 79463; host or cells: baculovirus expression system
T3 sequence (O60674 536-812 W659A/W777A/F794H): as the sequence (O60674 536-812 V617F/W659A/W777A/F794H) above, with F82V counted along it
Briefly: JAK2 LanthaScreen JH2-WT Binding Assay. The following applies: JAK2 JH2-WT 0.145 nM, 50 nM tracer, 1 hour at 25° C.; read-out: JH2 BIND WT. In a few lines:
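Biotinylated His-Avi-tagged JAK2 JH2 (0.145 nM), baculovirus-expressed, incubated with compounds, 50 nM fluorescent JH2 tracer and 0.25 nM streptavidin-Tb, 1 h at 25° C in pH 7.5 Tris buffer with MgCl2 and DTT. Non-specific binding defined with 2 mM ATP. TR-FRET read; IC50 from four-parameter fit.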

Sequence of catalytic domain (JH1, amino acids 808-1132) of human JAK2 (O60674 808-1132 limits assumed): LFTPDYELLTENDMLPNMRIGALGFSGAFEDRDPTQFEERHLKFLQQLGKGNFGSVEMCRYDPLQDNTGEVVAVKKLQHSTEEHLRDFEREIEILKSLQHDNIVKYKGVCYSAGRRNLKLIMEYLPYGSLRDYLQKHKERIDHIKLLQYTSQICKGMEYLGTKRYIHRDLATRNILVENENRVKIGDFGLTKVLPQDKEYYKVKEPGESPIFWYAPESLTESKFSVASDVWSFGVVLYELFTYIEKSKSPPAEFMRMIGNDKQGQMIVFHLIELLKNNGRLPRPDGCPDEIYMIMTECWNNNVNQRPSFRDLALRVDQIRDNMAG
T1 sequence (O60674 826-1132): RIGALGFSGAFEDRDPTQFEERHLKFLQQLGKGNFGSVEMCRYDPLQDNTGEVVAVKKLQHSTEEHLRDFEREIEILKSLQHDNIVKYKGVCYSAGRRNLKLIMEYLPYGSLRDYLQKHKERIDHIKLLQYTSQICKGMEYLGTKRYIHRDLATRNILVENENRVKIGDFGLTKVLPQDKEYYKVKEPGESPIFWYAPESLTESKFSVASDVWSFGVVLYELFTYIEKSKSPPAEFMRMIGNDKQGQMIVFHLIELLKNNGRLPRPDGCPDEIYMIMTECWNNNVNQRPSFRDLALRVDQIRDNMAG

As for `[2H]C([2H])([2H])n1c(=O)n([C@@H]2CC[C@@H](NC(=O)OC)C2)c2cc(Nc3cc(C(C)(C)O)cc(-c4ncc(C(F)(F)F)s4)n3)ncc21` [Example 100, Methyl ((1R,3R)-3-(6-((4-(2-hydroxypropan-2-yl)-6-(5-(trifluoromethyl)thiazol-2-yl)pyridin-2-yl)amino)-3-(methyl-d3)-2-oxo-2,3-dihydro-1H-imidazo[4,5-c]pyridin-1-yl)cyclopentyl)carbamate], the IC50 in assay [1] was above 1000 nM; in assay [2], above 1000 nM; in assay [3], at most 10 nM; in assay [4], at most 10 nM.

On to `[2H]C([2H])([2H])n1c(=O)n([C@@H]2CC[C@@H](NC(=O)OC)C2)c2cc(Nc3cc(CN4CC(C(F)F)C4)cc(-c4ncc(C(F)(F)F)s4)n3)ncc21` [Example 101, Methyl ((1R,3R)-3-(6-((4-((3-(difluoromethyl)azetidin-1-yl)methyl)-6-(5-(trifluoromethyl)thiazol-2-yl)pyridin-2-yl)amino)-3-(methyl-d3)-2-oxo-2,3-dihydro-1H-imidazo[4,5-c]pyridin-1-yl)cyclopentyl)carbamate], for which the IC50 is above 1000 nM in assay [1], above 1000 nM in assay [2], at most 10 nM in assay [3] and at most 10 nM in assay [4].

For `[2H]C([2H])([2H])n1c(=O)n([C@@H]2CC[C@@H](NC(=O)OC)C2)c2cc(Nc3cc(C(=O)N4CCOCC4)c(-c4cnn(C)c4)c(OC4CCC4)n3)ncc21` [Example 102, Methyl ((1R,3R)-3-(6-((6-cyclobutoxy-5-(1-methyl-1H-pyrazol-4-yl)-4-(morpholine-4-carbonyl)pyridin-2-yl)amino)-3-(methyl-d3)-2-oxo-2,3-dihydro-1H-imidazo[4,5-c]pyridin-1-yl)cyclopentyl)carbamate], the IC50 in assay [1] was above 1000 nM; in assay [2], above 1000 nM; in assay [3], at most 10 nM; in assay [4] it was at most 10 nM.

Consider `[2H]C([2H])([2H])n1c(=O)n([C@@H]2CC[C@@H](NC(=O)OC)C2)c2cc(Nc3cc(CO)nc(-c4ccc(C(F)F)s4)n3)ncc21` [Example 103, Methyl ((1R,3R)-3-(6-((2-(5-(difluoromethyl)thiophen-2-yl)-6-(hydroxymethyl)pyrimidin-4-yl)amino)-3-(methyl-d3)-2-oxo-2,3-dihydro-1H-imidazo[4,5-c]pyridin-1-yl)cyclopentyl)carbamate], for which the IC50 was above 1000 nM in assay [1], above 1000 nM in assay [2], at most 10 nM in assay [3] and at most 10 nM in assay [4].

On to `[2H]C([2H])([2H])n1c(=O)n([C@@H]2CC[C@@H](NC(=O)OC)C2)c2cc(Nc3cc(C(=O)N4CCOCC4)cc(-c4ccc(C(F)F)s4)n3)ncc21` [Example 104, Methyl ((1R,3R)-3-(6-((6-(5-(difluoromethyl)thiophen-2-yl)-4-(morpholine-4-carbonyl)pyridin-2-yl)amino)-3-(methyl-d3)-2-oxo-2,3-dihydro-1H-imidazo[4,5-c]pyridin-1-yl)cyclopentyl)carbamate], for which the IC50 was above 1000 nM in assay [1], 500 to 1000 nM in assay [2], at most 10 nM in assay [3] and at most 10 nM in assay [4].

As to `[2H]C([2H])([2H])n1c(=O)n([C@@H]2CC[C@@H](NC(=O)OC)C2)c2cc(Nc3cc(C4CCN(C(C)=O)CC4)cc(-c4ncc(C(F)(F)F)s4)n3)ncc21` [Example 105, Methyl ((1R,3R)-3-(6-((4-(1-acetylpiperidin-4-yl)-6-(5-(trifluoromethyl)thiazol-2-yl)pyridin-2-yl)amino)-3-(methyl-d3)-2-oxo-2,3-dihydro-1H-imidazo[4,5-c]pyridin-1-yl)cyclopentyl)carbamate], the IC50 is above 1000 nM in assay [1], above 1000 nM in assay [2], at most 10 nM in assay [3] and at most 10 nM in assay [4].

As to `[2H]C([2H])([2H])n1c(=O)n([C@H]2C[C@H](C(C)(C)O)C2)c2cc(Nc3cc(-c4cnccc4C(F)(F)F)c4nc(C)c(-c5cnn(C(F)F)c5)n4n3)ncc21` [Example 106, 6-((3-(1-(Difluoromethyl)-1H-pyrazol-4-yl)-2-methyl-8-(4-(trifluoromethyl)pyridin-3-yl)imidazo[1,2-b]pyridazin-6-yl)amino)-1-((1r,3r)-3-(2-hydroxypropan-2-yl)cyclobutyl)-3-(methyl-d3)-1,3-dihydro-2H-imidazo[4,5-c]pyridin-2-one], the IC50 in assay [1] is above 1000 nM; in assay [2] it was above 1000 nM; in assay [3], at most 10 nM; in assay [4], at most 10 nM.

For the compound `[2H]C([2H])([2H])n1c(=O)n([C@@H]2CC[C@@H](NC(=O)OC)C2)c2cc(Nc3cc(-c4cnn(C)c4)cc(-c4ncc(C(C)(C)O)s4)n3)ncc21` [Example 107, Methyl ((1R,3R)-3-(6-((6-(5-(2-hydroxypropan-2-yl)thiazol-2-yl)-4-(1-methyl-1H-pyrazol-4-yl)pyridin-2-yl)amino)-3-(methyl-d3)-2-oxo-2,3-dihydro-1H-imidazo[4,5-c]pyridin-1-yl)cyclopentyl)carbamate], the IC50 in assay [1] was above 1000 nM; in assay [2], above 1000 nM; in assay [3], at most 10 nM; in assay [4], at most 10 nM.

Turning to `[2H]C([2H])([2H])n1c(=O)n([C@@H]2CC[C@@H](NC(=O)OC)C2)c2cc(Nc3cccc(-n4cc(C(F)(F)F)cn4)n3)ncc21` [Example 108, Methyl ((1R,3R)-3-(3-(methyl-d3)-2-oxo-6-((6-(4-(trifluoromethyl)-1H-pyrazol-1-yl)pyridin-2-yl)amino)-2,3-dihydro-1H-imidazo[4,5-c]pyridin-1-yl)cyclopentyl)carbamate], the IC50 in assay [1] was above 1000 nM; in assay [2], above 1000 nM; in assay [3] it was at most 10 nM; in assay [4] it was at most 10 nM.

On to `[2H]C([2H])([2H])n1c(=O)n([C@@H]2CC[C@@H](NC(=O)OC)C2)c2cc(Nc3ccc4c(n3)n(-c3cnn(C(F)F)c3)c(=O)n4CC3(C#N)CC3)ncc21` [Example 114, Methyl ((1R,3R)-3-(6-((1-((1-cyanocyclopropyl)methyl)-3-(1-(difluoromethyl)-1H-pyrazol-4-yl)-2-oxo-2,3-dihydro-1H-imidazo[4,5-b]pyridin-5-yl)amino)-3-(methyl-d3)-2-oxo-2,3-dihydro-1H-imidazo[4,5-c]pyridin-1-yl)cyclopentyl)carbamate], for which the IC50 in assay [1] was above 1000 nM; in assay [2] it was above 1000 nM; in assay [3] it was at most 10 nM; in assay [4] it was at most 10 nM.

In the case of `[2H]C([2H])([2H])n1c(=O)n([C@@H]2CC[C@@H](NC(=O)OC)C2)c2cc(Nc3cc(C(C)(C)O)c4nc(C)n(-c5cnn(C(F)F)c5)c4n3)ncc21` [Example 115, Methyl ((1R,3R)-3-(6-((3-(1-(difluoromethyl)-1H-pyrazol-4-yl)-7-(2-hydroxypropan-2-yl)-2-methyl-3H-imidazo[4,5-b]pyridin-5-yl)amino)-3-(methyl-d3)-2-oxo-2,3-dihydro-1H-imidazo[4,5-c]pyridin-1-yl)cyclopentyl)carbamate], the IC50 in assay [1] is above 1000 nM; in assay [2], above 1000 nM; in assay [3], at most 10 nM; in assay [4], at most 10 nM.
